pIC50, pKi: −log10 of the molar value. Activity calls are given as the source filed them. No cut-off for these calls is given here.
What was measured:
Format in all cases: cell-based
[1] = molecular target: T1, Sodium-dependent dopamine transporter (Homo sapiens, UniProt Q01959); assay: Inhibition of [3H]dopamine uptake at human dopamine transporter expressed in mouse N2A cells by scintillation counting
[2] = molecular target: Sodium-dependent dopamine transporter (Rattus norvegicus) (UniProt P23977); assay: Binding affinity to rat dopamine transporter expressed in pig LLC-PK1 cells assessed as drug incorporation at 30 nM after 1 hr by SDS-PAGE analysis; settings: tested as the 125I-labelled form
Sequence of Sodium-dependent dopamine transporter (Rattus norvegicus) (P23977 whole entry): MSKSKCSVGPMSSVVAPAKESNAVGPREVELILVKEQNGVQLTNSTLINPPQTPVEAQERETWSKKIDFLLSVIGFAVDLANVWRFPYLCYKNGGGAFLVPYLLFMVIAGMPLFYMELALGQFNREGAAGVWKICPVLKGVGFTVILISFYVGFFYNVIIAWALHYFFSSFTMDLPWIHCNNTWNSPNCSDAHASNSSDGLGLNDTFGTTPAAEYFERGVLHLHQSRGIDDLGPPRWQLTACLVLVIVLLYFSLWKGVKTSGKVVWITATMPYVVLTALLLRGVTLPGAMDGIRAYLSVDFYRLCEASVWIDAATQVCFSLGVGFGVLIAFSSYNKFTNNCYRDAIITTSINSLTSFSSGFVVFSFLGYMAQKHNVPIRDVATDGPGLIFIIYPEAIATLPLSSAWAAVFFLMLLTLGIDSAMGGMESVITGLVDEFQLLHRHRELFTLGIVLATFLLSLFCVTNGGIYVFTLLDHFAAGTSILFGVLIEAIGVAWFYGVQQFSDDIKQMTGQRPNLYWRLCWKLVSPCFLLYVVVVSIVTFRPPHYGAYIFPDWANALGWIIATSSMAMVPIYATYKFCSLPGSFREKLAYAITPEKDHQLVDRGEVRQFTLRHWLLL

[3] = molecular target: T1, Sodium-dependent dopamine transporter; assay: Displacement of [3H]WIN-35428 from human dopamine transporter expressed in mouse N2A cells by scintillation counting
[4] = molecular target: Sodium-dependent dopamine transporter (Rattus norvegicus) (UniProt P23977); assay: Binding affinity to rat dopamine transporter expressed in pig LLC-PK1 cells assessed as drug incorporation at 30 nM after 1 hr by SDS-PAGE analysis in presence of cocaine; settings: tested as the 125I-labelled form

T1 sequence (Q01959 whole entry): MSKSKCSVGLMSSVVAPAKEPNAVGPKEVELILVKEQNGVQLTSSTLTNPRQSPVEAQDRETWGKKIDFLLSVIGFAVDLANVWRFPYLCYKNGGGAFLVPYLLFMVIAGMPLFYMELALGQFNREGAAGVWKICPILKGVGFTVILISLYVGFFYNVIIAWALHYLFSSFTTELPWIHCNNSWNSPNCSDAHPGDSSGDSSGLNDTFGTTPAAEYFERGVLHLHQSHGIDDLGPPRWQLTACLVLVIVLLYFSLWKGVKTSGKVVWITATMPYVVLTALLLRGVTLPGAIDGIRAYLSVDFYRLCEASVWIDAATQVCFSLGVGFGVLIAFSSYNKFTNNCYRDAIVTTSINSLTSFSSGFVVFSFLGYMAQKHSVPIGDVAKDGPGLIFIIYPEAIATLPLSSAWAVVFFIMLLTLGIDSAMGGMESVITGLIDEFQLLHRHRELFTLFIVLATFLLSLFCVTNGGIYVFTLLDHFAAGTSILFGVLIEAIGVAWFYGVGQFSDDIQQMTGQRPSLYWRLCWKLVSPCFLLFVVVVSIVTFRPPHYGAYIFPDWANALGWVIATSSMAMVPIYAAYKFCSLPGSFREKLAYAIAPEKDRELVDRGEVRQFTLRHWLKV

SMILES | pIC50 [1] | Activity [2] | pKi [3] | Activity [4]
CCCC(C(=O)c1ccc(N=[N+]=[N-])c(I)c1)N1CCCC1 (stereo not given) | 6.58 | Active | 7.11 | inactive
CCCC(C(=O)c1ccc(C)cc1)N1CCCC1 (stereo not given) [PYROVALERONE] | 7.49 | – | 8.10 | –
CCCC(C(=O)c1ccc(N)c(I)c1)N1CCCC1 (stereo not given) | 6.76 | – | 7.55 | –
CCCC(C(=O)c1ccc(N)cc1)N1CCCC1 (stereo not given) | 8.15 | – | 8.30 | –
